Measurements: patent publication US20170129903A1, “COMPOUNDS COMPRISING 1,1a,2,5a-TETRAHYDROSPIRO[INDOLE-3,2a-PYRROLE]-2,5a-DIONE SYSTEM AS INHIBITORS P53-MDM2 PROTEIN-PROTEIN INTERACTION” (ADAMED SP. Z O.O., priority 2014, published 2017)

Assays:
[1] = molecular target: T1, p53-Mdm2 interaction (N-terminal domain of Mdm2 protein, amino acids 1-111) (Homo sapiens, UniProt Q00987); experiment: Fluorescence polarization (FP) binding assay of p53-Mdm2 interaction; details: for Ki: FP assay, 130 nM Mdm2, FAM-labelled p53 peptide, Ki transformed from IC50 using Kenakin equation
T1 construct: N-terminal domain of Mdm2 protein (amino acids 1-111)
Summary of the method: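 N-terminal Mdm2 (aa 1-111) at 130 nM preincubated 15 min with compound (5% DMSO) in PBS, 0.1% CHAPS, 5 mM DTT, then […] FAM-labelled p53 peptide added. Polarization read after 90 min at room temperature (ex 470/em 520 nm). IC50 converted to Ki by Kenakin equation.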

[2] = tested on: SJSA-1 osteosarcoma cell line; experiment: MTT cell viability assay; format: cell-based; details: 72 h incubation, average of 2-5 experiments
Method: The effect of the invented p53-Mdm2 inhibitors on cell viability has been assessed using MTT assay. It is a colorimetric assay that measures conversion of tetrazolium ring of the soluble yellow dye (MTT) into insoluble purple formazan. This process is catalysed solely in mitochondrial dehydrogenases of living cells.
Cells were seeded on 96-well plates and then treated with successive dilutions of tested compounds. After 72 h incubation, MTT was added to the final concentration 0.5 mg/ml. The cells were further incubated for the next 4 h. Then the solution was drained and the remaining formazan crystals were dissolved in 100 μl DMSO. […] All the MTT experiments were independently repeated 2-5 times. Dose-dependent binding curves and IC50 values were calculated using GraphPad Prism 5.

T1 sequence (Q00987 1-111): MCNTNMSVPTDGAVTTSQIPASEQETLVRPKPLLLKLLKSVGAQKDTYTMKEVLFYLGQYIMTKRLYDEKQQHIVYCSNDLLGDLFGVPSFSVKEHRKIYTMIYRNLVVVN

Compound	Ki [1]	IC50 ([2]; Homo sapiens, SJSA-1, 72 h)	times more potent than the corresponding S/R (racemic) mixture ([1]; enantiopure S isomers vs racemic Compounds 71, 93 and 72, respectively)	IC50 [2]
COc1ccccc1-n1nc2c(c1C(C)C)[C@@]1(C(=O)Nc3cc(Cl)ccc31)N(c1cc(Cl)ccc1C)C2=O [Compound 65, (3S)-6-chloro-5′-(5-chloro-2-methyl-phenyl)-2′-(2-methoxyphenyl)-3′-(propan-2-yl)-1,2,5′,6′-tetrahydro-2′H-spiro[indole-3,4′-pyrrolo[3,4-c]pyrazole]-2,6′-dione]	1.9 nM	0.22 µM		
COc1ccc(Cl)cc1N1C(=O)c2n[nH]c(C3(C)CC3)c2C12C(=O)Nc1cc(Cl)ccc12 (stereo not shown) [Compound 22, 6-chloro-5′-(5-chloro-2-methoxyphenyl)-3′-(1-methylcyclopropyl)-1,2,5′,6′-tetrahydro-2′H-spiro[indole-3,4′-pyrrolo [3,4-c]pyrazole]-2,6′-dione]	120 nM	6.95 µM		
COc1sccc1-n1cc2c(c1C(C)C)C1(C(=O)Nc3cc(Cl)ccc31)N(c1cc(Cl)ccc1C)C2=O (stereo not shown) [Compound 113, 6-chloro-2′-(5-chloro-2-methylphenyl)-5′-(2-methoxythiophen-3-yl)-6′-(propan-2-yl)-1,2,3′,5′-tetrahydro-2′H-spiro[indole-3,1′-pyrrolo[3,4-c]pyrrole]-2,3′-dione]	3.4 nM	0.69 µM		
CC(C)c1c2c(nn1CC1CCCN1C(=O)N(C)C)C(=O)N(c1cccc(Cl)c1)C21C(=O)Nc2cc(Cl)ccc21 (stereo not shown) [Compound 34, 2-[6-chloro-5′-(3-chlorophenyl)-2,6′-dioxo-3′-(propan-2-yl)-1,2,5′,6′-tetrahydro-2′H-spiro[indole-3,4′-pyrrolo [3,4-c]pyrazole]-2′-ylmethyl]-N,N-dimethylpyrrolidine-1-carboxamide]	235 nM	24.2 µM		
COc1ccc(N)cc1-n1cc2c(c1C(C)C)C1(C(=O)Nc3cc(Cl)ccc31)N(c1cc(Cl)ccc1C)C2=O (stereo not shown) [Compound 96, 5′-(5-amino-2-methoxyphenyl)-6-chloro-2′-(5-chloro-2-methylphenyl)-6′-(propan-2-yl)-1,2,3′,5′-tetrahydro-2′H-spiro [indole-3,1′-pyrrolo[3,4-c]pyrrole]-2,3′-dione]	4 nM	0.3 µM		
COc1ccccc1-n1nc2c(c1C(C)C)C1(C(=O)Nc3cc(Cl)ccc31)N(c1cccc(Cl)c1)C2=O (stereo not shown) [Compound 27, 6-chloro-5′-(3-chlorophenyl)-2′-(2-methoxyphenyl)-3′-(propan-2-yl)-1,2,5′,6′-tetrahydro-2′H-spiro[indole-3,4′-pyrrolo [3,4-c]pyrazole]-2,6′-dione]	4.3 nM	1.07 µM		
Cc1ccc(Cl)cc1N1C(=O)c2cn(-c3cccc4c3OCO4)c(C(C)C)c2C12C(=O)Nc1cc(Cl)ccc12 (stereo not shown) [Compound 94, 5′-(2H-1,3-benzodioxol-4-yl)-6-chloro-2′-(5-chloro-2-methylphenyl)-6′-(propan-2-yl)-1,2,3′,5′-tetrahydro-2′H-spiro[indole-3,1′-pyrrolo[3,4-c]pyrrole]-2,3′-dione]	9.6 nM	0.93 µM		
NC(=O)CSC1=C(c2ccccc2)C2(C(=O)Nc3cc(Cl)ccc32)N(c2cccc(Cl)c2)C1=O (stereo not shown) [Compound 53, 2-[6-chloro-1′-(3-chlorophenyl)-2,5′-dioxo-3′-phenyl-1,1′,2,5′-tetrahydrospiro [indole-3,2′-pyrrole]-4′-ylsulfanyl] acetamide]	581 nM	29.6 µM		
COc1ccccc1-n1nc2c(c1C(C)C)C1(C(=O)Nc3cc(Cl)ccc31)N(c1cc(Cl)cnc1C)C2=O (stereo not shown) [Compound 71, 6-chloro-5′-(5-chloro-2-methylpyridin-3-yl)-2′-(2-methoxyphenyl)-3′-(propan-2-yl)-1,2,5′,6′-tetrahydro-2′H-spiro[indole-3,4′-pyrrolo[3,4-c]pyrazole]-2,6′-dione]	4.3 nM	0.46 µM		
COc1ccccc1-n1nc2c(c1C(C)C)[C@@]1(C(=O)Nc3cc(Cl)ccc31)N(c1cncc(Cl)c1)C2=O [Compound 81, (3S)-6-chloro-5′-(5-chloropyridin-3-yl)-2′-(2-methoxyphenyl)-3′-(propan-2-yl)-1,2,5′,6′-tetrahydro-2′H-spiro-[indole-3,4′-pyrrolo[3,4-c]pyrazole]-2,6′-dione]	2.2 nM		about 2 times	0.8 µM
COc1ccc(S(=O)(=O)N2CCOCC2)cc1-n1cc2c(c1C(C)C)C1(C(=O)Nc3cc(Cl)ccc31)N(c1cc(Cl)ccc1C)C2=O (stereo not shown) [Compound 112, 6-chloro-2′-(5-chloro-2-methylphenyl)-5′-[2-methoxy-5-(morpholine-4-sulfonyl)phenyl]-6′-(propan-2-yl)-1,2,3′,5′-tetrahydro-2′H-spiro[indole-3,1′-pyrrolo [3,4-c]pyrrole]-2,3′-dione]	3.5 nM	0.15 µM		
COc1ccccc1-n1cc2c(c1C(C)C)[C@@]1(C(=O)Nc3cc(Cl)ccc31)N(c1cc(Cl)ccc1NS(C)(=O)=O)C2=O [Compound 102, N-{4-chloro-2-[(3S)-6-chloro-5′-(2-methoxy-phenyl)-2,3′-dioxo-6′-(propan-2-yl)-1,2,3′,5′-tetrahydro-2′H-spiro[indole-3,1′-pyrrolo[3,4-c]pyrrole]-2′-yl]phenyl} methanesulfonamide]	2.9 nM	0.66 µM		
COc1ccc(CSC2=C(O)C(=O)N(c3cccc(Cl)c3)C23C(=O)Nc2cc(Cl)ccc23)cc1 (stereo not shown) [Compound 59, 6-chloro-1′-(3-chlorophenyl)-4′-hydroxy-3′-{[(4-methoxyphenyl)methyl]sulfanyl}-1,1′,2,5′-tetrahydrospiro[indole-3,2′-pyrrole]-2,5′-dione]	178 nM	37.5 µM		
COC(=O)c1ccc(OC)c(-n2nc3c(c2C(C)C)C2(C(=O)Nc4cc(Cl)ccc42)N(c2cc(Cl)ccc2C)C3=O)c1 (stereo not shown) [Compound 78, methyl 3-[6-chloro-5′-(5-chloro-2-methylphenyl)-2,6′-dioxo-3′-(propan-2-yl)-1,2,5′,6′-tetrahydro-2′H-spiro[indole-3,4′-pyrrolo[3,4-c]pyrazol]-2′-yl]-4-methoxybenzoate]	3.4 nM	0.36 µM		
CO[C@H]1CNCC[C@H]1n1cc2c(c1C(C)C)[C@@]1(C(=O)Nc3cc(Cl)ccc31)N(c1cc(Cl)ccc1C)C2=O [Compound 103, (3S)-6-chloro-2′-(5-chloro-2-methyl-phenyl)-5′-[(3S,4R)-3-methoxy-piperidin-4-yl]-6′-(propan-2-yl)-1,2,3′,5′-tetrahydro-2′H-spiro[indole-3,1′-pyrrolo [3,4-c]pyrrole]-2,3′-dione]	4.5 nM	2.2 µM		
CC(C)c1[nH]nc2c1C1(C(=O)Nc3cc(Cl)ccc31)N(c1cc(Cl)ccc1O)C2=O (stereo not shown) [Compound 24, 6-chloro-5′-(5-chloro-2-hydroxyphenyl)-3′-(propan-2-yl)-1,2,5′,6′-tetrahydro-2′H-spiro[indole-3,4′-pyrrolo[3,4-c]pyrazole]-2,6′-dione]	54 nM	33.5 µM		
COc1ccc(Cl)cc1N1C(=O)c2n[nH]c(C(C)(C)C)c2C12C(=O)Nc1cc(Cl)ccc12 (stereo not shown) [Compound 21, 3′-tert-butyl-6-chloro-5′-(5-chloro-2-methoxyphenyl)-1,2,5′,6′-tetrahydro-2′H-spiro[indole-3,4′-pyrrolo[3,4-c]pyrazole]-2,6′-dione]	70 nM	15.1 µM		
COc1cc2[nH]c(=O)[nH]c2cc1-n1cc2c(c1C(C)C)C1(C(=O)Nc3cc(Cl)ccc31)N(c1cc(Cl)ccc1C)C2=O (stereo not shown) [Compound 101, 6-chloro-2′-(5-chloro-2-methylphenyl)-5′-(6-methoxy-2-oxo-2,3-dihydro-1H-1,3-benzodiazol-5-yl)-6′-(propan-2-yl)-1,2,3′,5′-tetrahydro-2′H-spiro[indole-3,1′-pyrrolo[3,4-c]pyrrole]-2,3′-dione]	4.7 nM	1.77 µM		
COc1ccc(C(N)=O)cc1-n1cc2c(c1C(C)C)[C@@]1(C(=O)Nc3cc(Cl)ccc31)N(c1cc(Cl)ccc1C)C2=O [Compound 110, 3-[(3S)-6-chloro-2′-(5-chloro-2-methylphenyl)-2,3′-dioxo-6′-(propan-2-yl)-1,2,3′,5′-tetrahydro-2′H-spiro[indole-3,1′-pyrrolo[3,4-c]pyrrole]-5′-yl]-4-methoxybenzamide]	1.7 nM	0.35 µM		
COc1ccc(-n2cc3c(c2C(C)C)C2(C(=O)Nc4cc(Cl)ccc42)N(c2cc(Cl)cnc2C)C3=O)c(OC)c1 (stereo not shown) [Compound 104, 6-chloro-2′-(5-chloro-2-methylpyridin-3-yl)-5′-(2,4-dimethoxyphenyl)-6′-(propan-2-yl)-1,2,3′,5′-tetrahydro-2′H-spiro[indole-3,1′-pyrrolo[3,4-c]pyrrole]-2,3′-dione]	3.1 nM	0.16 µM		
COc1ccccc1-n1cc2c(c1C(C)C)C1(C(=O)Nc3cc(Cl)ccc31)N(c1cc(Cl)ccc1C(=O)O)C2=O (stereo not shown) [Compound 105, 4-chloro-2-[6-chloro-5′-(2-methoxyphenyl)-2,3′-dioxo-6′-(propan-2-yl)-1,2,3′,5′-tetrahydro-2′H-spiro[indole-3,1′-pyrrolo[3,4-c]pyrrole]-2′-yl]benzoic acid]	4.3 nM	9.98 µM		
